Measured values taken from patent US20070154449A1, “TIGHT JUNCTION MODULATING PEPTIDES FOR ENHANCED MUCOSAL DELIVERY OF THERAPEUTIC COMPOUNDS” (Nastech Pharmaceutical Company Inc., priority 2005, published 2007).

Assays:
Format in all cases: cell-based
[1] = tested on: human-derived tracheal/bronchial epithelial cells (EpiAirway™ Tissue model system); assay: Transepithelial electrical resistance (TER), EpiAirway tissue model; conditions: pH 7, 20 μl applied
Procedure: EpiAirway™ culture membranes were received the day before the experiments started. They are shipped in phenol red-free and hydrocortisone-free Dulbecco's Modified Eagle's Medium (DMEM). The cells are ciliated and psudostratefied, grown to confluency on Millipore Multiscreen Caco-2 96-well assay system comprised of a polycarbonate filter system. Upon receipt, the insert system will be stored unopened at 4° C. and/or cultured in 250 μl basal media per well (phenol red-free and hydrocortisone-free Dulbecco's Modified Eagle's Medium (DMEM)) at 37° C./5% CO2 for 24 hours before use.
TER measurements were taken using the REMS Autosampler (World Precision Instruments, Sarasota, Fla.) with the electrode leads. The electrodes and a tissue culture blank insert will be equilibrated for at least 20 minutes in MatTek Air-100™ medium with the power off prior to checking calibration. The background resistance of the insert system has been established by multiple measurements of a blank insert plate and the same value was used for each test on the platform. Time zero TER (TER0) was measured before incubation of the inserts with the test formulation. The top electrode will be as adjusted so that it is close to, but not making contact with, the top surface of the insert membrane. Background resistance of the blank insert should be about 5-20 ohms. For each TER determination, 100 μl of MatTek Air-100™ medium was added to the insert and 250 μl in the basal well followed by placement in the Endohm chamber. All TER values are reported as a function of the surface area of the tissue. Resistance was expressed as both Ohms*cm^2 and percent original TER value.
TER values were calculated as: [formula] [formula] Formula terms for TER calculation defined: […]
A decrease in TER value relative to the control value indicates a decrease in cell membrane resistance and an increase in mucosal epithelial cell permeability.
(§1) Of the total 300 μl volume for each test formulation, only a 20 μl sample was applied to the human-derived tracheal/bronchial epithelial cells (EpiAirway™ Tissue model system) in order to assess the effect each test formulation had on TER, LDH and sample permeation.

[2] = tested on: human-derived tracheal/bronchial epithelial cells (EpiAirway™ Tissue model system); assay: Cytotoxicity (LDH assay), EpiAirway tissue model; conditions: 1 h incubation, % of 1% Triton X-100 control
Procedure: The amount of cell death was assayed by measuring the release of lactate dehydrogenase (LDH) from the cells into the apical medium using a CytoTox 96 Cytotoxicity Assay Kit (Promega Corp., Madison, Wis.). One percent Octylphenolpoly (ethyleneglycolether)×(Triton X-100™) diluted in phosphate buffered saline (PBS) causes 100% lysis in cultured cells and served herein as a positive control for the LDH assay. Following the one hour incubation period with a test formulation (refer to Table 4 in Example 2 for details of test formulations), the total liquid volume of each insert was brought to a final volume of 200 μl with culture medium. The apical medium was then mixed by pipetting four times with a multichannel pipette set to a 100 μl volume. After mixing, a 100 μl sample from the apical side of each insert was transferred to a new 96-well plate. The apical media samples were sealed with a plate sealer and stored at room temperature for same day analysis or stored overnight at 4° C. for analysis the next day. To measure LDH levels, 5 μl of the 100 μl apical media sample was diluted in 45 μl DPBS in a new 96-well plate. Fresh, cell-free culture medium will be used as a blank. Fifty microliters of substrate solution was added to each well and incubated for 30 minutes at room temperature away from direct light. Following the 30 minute incubation, 50 μl of stop solution was added to each well. Optical density (OD) was measured at 490 nm with a uQuant absorbance plate reader from Biotek Instruments. The measurement of LDH release into the apical media indicates relative cytotoxicity of the samples. Percent cytotoxicity for each test formulation was calculated by subtracting the measured absorbance of the PBS control (basal level of LDH release) from the measured absorbance of the individual test formulation and then dividing that value by the measured absorbance for the 1% Triton X-100™ positive control, multiplied by 100.
The formula used to calculate percent cytotoxicity is as follows: [formula] Osmolality
as §1

[3] = tested on: human-derived tracheal/bronchial epithelial cells (EpiAirway™ Tissue model system); assay: FITC-Dextran (FD3) permeation assay, EpiAirway tissue model; conditions: for % FD3 Permeation: 1 h at 37° C.
Procedure: A FITC labeled dextran with a molecular weight 3000 (FD3) was used to assess the efficacy of individual TJMP on epithelial cell monolayer permeation. The tissue insert plates were transferred to a 96-well receiver plate containing 200 μl of DPBS++ as basal media. The apical surface of each tissue culture insert was incubated with a 20 μl sample of a single test formulation (refer to Table 4 in Example 2 for details of test formulations) for one hour at 37° C. in the dark on a shaker (˜100 rpm). Following the 1 hour incubation period, underlying basal media samples were taken from each tissue culture insert and temporarily stored in the dark at room temperature until FD3 levels were quantified by fluorescence spectroscopy. For FD3 measurements, a 150 μl of basal media sample was transferred to a black, clear bottom 96-well plate. Fluorescence emission at 528/20 following excitation at 485/20 were measured using a FLx800 fluorescence plate reader from Biotek Instruments.
Permeation was calculated as: [formula] [formula] Formula terms for permeation defined: […]
as §1

CNGRCGGKKKLKLLLKLL [PN679]
% T0 TER ([1]; 25 μM peptide): 70% | % T0 TER ([1]; 100 μM peptide): 7% | % T0 TER ([1]; 250 μM peptide): 2% | % T0 TER ([1]; 500 μM peptide): −2% | % T0 TER ([1]; 1000 μM peptide): −2% | LDH ([2]; 25 μM peptide): 1% | LDH ([2]; 100 μM peptide): 23% | LDH ([2]; 250 μM peptide): 38% | LDH ([2]; 500 μM peptide): 50% | LDH ([2]; 1000 μM peptide): 51% | % FD3 Permeation ([3]; 25 μM peptide): 0% | % FD3 Permeation ([3]; 100 μM peptide): 7% | % FD3 Permeation ([3]; 250 μM peptide): 8% | % FD3 Permeation ([3]; 500 μM peptide): 10% | % FD3 Permeation ([3]; 1000 μM peptide): 10% | optimal concentration ([3]; based on observed TER reduction, sample permeation and cytotoxicity (LDH release)): 100 µM
